Experimental findings from patent US20260242373A1, “NBD1 MODULATORS AND METHODS OF USING THE SAME” (Sionna Therapeutics Inc., priority 2023, published 2026) are described below.

The subject of the assay is NBD1. Nature of the assay: Aggregation analysis of NBD1 thermal stability by differential static light scattering (DSLS). The assay is classed as binding, Human. To be noted: 100 μM compound; ΔTagg versus DMSO control. On the procedure: Purified recombinant NBD1 was produced using previously described methods (A. Schmidt, J. L. Mendoza, P. J. Thomas (2011) Biochemical and Biophysical Approaches to Probe CFTR Structure (365-376) M. D. Amaral, K. Kunzelmann (eds.), Cystic Fibrosis, Methods in Molecular Biology 741, Springer Science+Business Media). The effect of test compounds on thermal stability of NBD1 was evaluated by differential static light scattering (DSLS) using the Harbinger Stargazer-384 instrument (Epiphyte Three, Toronto, Canada). Test compounds were dissolved and diluted to desired concentrations in 100% DMSO. The compounds or DMSO controls (100 nL) were stamped into wells of a […] low volume optical plate (Corning Inc., Corning, NY) using the Echo 555 acoustic liquid handler (Labcyte Inc., San Jose, CA).
NBD1 protein was diluted to 0.2 mg/ml in S200 buffer (50 mM Tris-HCl, 150 mM NaCl, 5 mM MgCl2, 2 mM ATP, 2 mM DTT, pH7.6) containing 1% glycerol. 10 uL of protein solution was aliquoted into the 384-well plate harboring the test compounds and 10 uL mineral oil was overlayed onto the protein solution, using the epMotion robotic liquid handler (Eppendorf North America, Hauppauge, NY). After placing into the Stargazer instrument, the plate was heated at 1° C. per minute to 70° C. Images were captured from 25° C. to 70° C. every 0.5° C. At the end of the experiment run, instrument software integrated image files and analyzed data automatically. A […] regression curve was generated for each well, representing the increase in light scattering over time. A temperature of aggregation (Tagg) was calculated based on the inflection point of the curve. To better compare data across experiments the average Tagg for DMSO control wells was calculated and subtracted from values for wells containing compounds to obtain a “ΔTagg” value. These ΔTagg values reflect stabilizing efficacy of the compounds.
In the case of `Cc1cnc(Cc2nnc(-c3cccc(Oc4ccc5[nH]ccc5c4)c3)[nH]2)s1` [Compound 16, 2-((5-(3-((1H-indol-5-yl)oxy)phenyl)-4H-1,2,4-triazol-3-yl)methyl)-5-methylthiazole], the “DSLS NBD1/3D Human Stability delta-T (° C.) @ 100 (μM)” value (“DSLS NBD1/3D Human Stability delta-T” below) was “C (C: ≤4° C.)”.

As for `O=C(NCC(O)C(F)(F)F)c1c(Oc2cccc(-c3nnc(C(O)c4cncs4)[nH]3)c2)ccc2[nH]ccc12` (centres unmarked) [Compound 42, 5-(3-(5-(hydroxy(thiazol-5-yl)methyl)-4H-1,2,4-triazol-3-yl)phenoxy)-N-(3,3,3-trifluoro-2-hydroxypropyl)-1H-indole-4-carboxamide], the “DSLS NBD1/3D Human Stability delta-T” value is listed as “B (B: 4-8° C.)”. Then `Cn1cc(C(O)c2nnc(-c3cccc(Oc4ccc5[nH]ccc5c4)c3)[nH]2)cn1` (centres unmarked) [Compound 30, (5-(3-((1H-indol-5-yl)oxy)phenyl)-4H-1,2,4-triazol-3-yl)(1-methyl-1H-pyrazol-4-yl)methanol], with “B (B: 4-8° C.)”; and `OCc1c(Oc2cccc(-c3nnc(C(O)c4cncs4)[nH]3)c2)ccc2[nH]ccc12` (centres unmarked) [Compound 40, (5-(3-((4-(hydroxymethyl)-1H-indol-5-yl)oxy)phenyl)-4H-1,2,4-triazol-3-yl)(thiazol-5-yl)methanol], with “B (B: 4-8° C.)”; and `O=C(O)CCc1ccc(Cc2cnc(-c3cc(Oc4c(F)cc5[nH]ccc5c4F)ccc3F)[nH]2)s1` [Compound 43, 3-(5-((2-(5-((4,6-difluoro-1H-indol-5-yl)oxy)-2-fluorophenyl)-1H-imidazol-5-yl)methyl)thiophen-2-yl)propanoic acid], with “A (A: T ≥8° C.)”. The result for `Cc1ncc(C(O)c2nnc(-c3cccc(Oc4ccc5[nH]cnc5c4)c3)[nH]2)s1` (centres unmarked) [Compound 35, (5-(3-((1H-benzo[d]imidazol-5-yl)oxy)phenyl)-4H-1,2,4-triazol-3-yl)(2-methylthiazol-5-yl)methanol] reads “C (C: ≤4° C.)”. The result for `O=C(O)CCc1cccc(Cc2cc(N3CCCCC3=O)n(-c3cc(Oc4c(F)cc5[nH]ccc5c4F)ccc3F)n2)c1` [Compound 57, 3-[3-[[1-[5-[(4,6-difluoro-1H-indol-5-yl)oxy]-2-fluoro-phenyl]-5-(2-oxo-1-piperidyl)pyrazol-3-yl]methyl]phenyl]propanoic acid] reads “C (C: ≤4° C.)”. Turning to `CN(C)CCNC(=O)c1c(Oc2cccc(-c3nnc(C(O)c4cncs4)[nH]3)c2)ccc2[nH]ccc12` (centres unmarked) [Compound 41, N-(2-(dimethylamino)ethyl)-5-(3-(5-(hydroxy(thiazol-5-yl)methyl)-4H-1,2,4-triazol-3-yl)phenoxy)-1H-indole-4-carboxamide], the “DSLS NBD1/3D Human Stability delta-T” value is reported as “C (C: ≤4° C.)”. The result for `c1cc(Oc2ccc3[nH]ccc3c2)cc(-c2nnc(Cc3cncs3)[nH]2)c1` [Compound 14, 5-((5-(3-((1H-indol-5-yl)oxy)phenyl)-4H-1,2,4-triazol-3-yl)methyl)thiazole] reads “C (C: ≤4° C.)”. Then `OC(Cc1nccs1)c1cnc(-c2cccc(Oc3ccc4[nH]cnc4c3)c2)[nH]1` (centres unmarked) [Compound 34, 1-(2-(3-((1H-benzo[d]imidazol-5-yl)oxy)phenyl)-1H-imidazol-5-yl)-2-(thiazol-2-yl)ethan-1-ol], with “C (C: ≤4° C.)”. Regarding `Cc1ncc(C(N)c2nnc(-c3cccc(Oc4ccc5[nH]cnc5c4)c3)[nH]2)s1` (centres unmarked) [Compound 36, (5-(3-((1H-benzo[d]imidazol-5-yl)oxy)phenyl)-4H-1,2,4-triazol-3-yl)(2-methylthiazol-5-yl)methanamine], the “DSLS NBD1/3D Human Stability delta-T” value is “C (C: ≤4° C.)”.

`O=C(O)CCc1cccc(Cc2cc(NCCO)n(-c3cc(Oc4c(F)cc5[nH]ccc5c4F)ccc3F)n2)c1` [Compound 56, 3-(3-((1-(5-((4,6-difluoro-1H-indol-5-yl)oxy)-2-fluorophenyl)-5-((2-hydroxyethyl)amino)-1H-pyrazol-3-yl)methyl)phenyl) propanoic acid]: the “DSLS NBD1/3D Human Stability delta-T” value is listed as “B (B: 4-8° C.)”. The result for `CC(C1=NN(c2cc(Oc3c(F)cc4[nH]ccc4c3F)ccc2F)C(=O)C1)c1cccc(CCC(=O)O)c1F` (centres unmarked) [Compound 51, 3-(3-(1-(1-(5-((4,6-difluoro-1H-indol-5-yl)oxy)-2-fluorophenyl)-5-oxo-4,5-dihydro-1H-pyrazol-3-yl)ethyl)-2-fluorophenyl)propanoic acid] reads “B (B: 4-8° C.)”; that for `Cc1ncc(C(O)c2nnc(-c3cccc(Oc4ccc5[nH]ccc5c4C(N)=O)c3)[nH]2)s1` (centres unmarked) [Compound 39, 5-(3-(5-(hydroxy(2-methylthiazol-5-yl)methyl)-4H-1,2,4-triazol-3-yl)phenoxy)-1H-indole-4-carboxamide], “B (B: 4-8° C.)”; that for `Cc1cnc(C(O)c2c[nH]c(-c3cccc(Oc4ccc5[nH]ccc5c4)c3)n2)s1` (centres unmarked) [Compound 22, (2-(3-((1H-indol-5-yl)oxy)phenyl)-1H-imidazol-4-yl)(5-methylthiazol-2-yl)methanol], “B (B: 4-8° C.)”. The result for `Cn1nccc1C(O)c1cnc(-c2cccc(Oc3ccc4[nH]cnc4c3)c2)[nH]1` (centres unmarked) [Compound 29, (2-(3-((1H-benzo[d]imidazol-5-yl)oxy)phenyl)-1H-imidazol-5-yl)(1-methyl-1H-pyrazol-5-yl)methanol] reads “C (C: ≤4° C.)”.

In the case of `CC(c1noc(-c2cc(Oc3c(F)cc4[nH]ccc4c3F)ccc2F)n1)c1cccc(CCC(=O)O)c1F` (centres unmarked) [Compound 53, 3-(3-(1-(5-(5-((4,6-difluoro-1H-indol-5-yl)oxy)-2-fluorophenyl)-1,2,4-oxadiazol-3-yl)ethyl)-2-fluorophenyl)propanoic acid], the “DSLS NBD1/3D Human Stability delta-T” value was “B (B: 4-8° C.)”. `Cn1nccc1C(O)c1cnc(-c2cccc(Oc3ccc4[nH]ccc4c3)c2)[nH]1` (centres unmarked) [Compound 26, (2-(3-((1H-indol-5-yl)oxy)phenyl)-1H-imidazol-5-yl)(1-methyl-1H-pyrazol-5-yl)methanol]: the “DSLS NBD1/3D Human Stability delta-T” value is given as “C (C: ≤4° C.)”. For `Cc1cc(Cc2nnc(-c3cccc(Oc4cc5cc[nH]c5cn4)c3)[nH]2)cs1` [Compound 9, 5-(3-(5-((5-methylthiophen-3-yl)methyl)-4H-1,2,4-triazol-3-yl)phenoxy)-1H-pyrrolo[2,3-c]pyridine], the “DSLS NBD1/3D Human Stability delta-T” value is “C (C: ≤4° C.)”.

Take `O[C@@H](Cc1cncs1)c1c[nH]c(-c2cccc(Oc3ccc4[nH]ccc4c3)c2)n1` (single isomer, unassigned) [Compound 24]: the “DSLS NBD1/3D Human Stability delta-T” value was “C (C: ≤4° C.)”. The result for `Cn1nccc1C(O)c1cnc(-c2cccc(Oc3ccc4[nH]ccc4n3)c2)[nH]1` (centres unmarked) [Compound 33, (2-(3-((1H-pyrrolo[3,2-b]pyridin-5-yl)oxy)phenyl)-1H-imidazol-5-yl)(1-methyl-1H-pyrazol-5-yl)methanol] reads “C (C: ≤4° C.)”; that for `CC(c1cccc(CCC(=O)O)c1F)c1nc(-c2cc(Oc3c(F)cc4[nH]ccc4c3F)ccc2F)n2c1CCCC2` (centres unmarked) [Compound 47, 3-(3-(1-(3-(5-((4,6-difluoro-1H-indol-5-yl)oxy)-2-fluorophenyl)-5,6,7,8-tetrahydroimidazo[1,5-a]pyridin-1-yl)ethyl)-2-fluorophenyl)propanoic acid], “C (C: ≤4° C.)”; that for `Cc1c(Oc2cccc(-c3nn(Cc4cccc(CCC(=O)O)c4)cc3F)c2)c(F)cc2[nH]ccc12` [Compound 54, 3-(3-((4-fluoro-3-(3-((6-fluoro-4-methyl-1H-indol-5-yl)oxy)phenyl)-1H-pyrazol-1-yl)methyl)phenyl)propanoic acid], “B (B: 4-8° C.)”. The result for `Cc1ncc(C(O)c2nnc(-c3cccc(Oc4ccc5[nH]ccc5c4CO)c3)[nH]2)s1` (centres unmarked) [Compound 37, (5-(3-((4-(hydroxymethyl)-1H-indol-5-yl)oxy)phenyl)-4H-1,2,4-triazol-3-yl)(2-methylthiazol-5-yl)methanol] reads “B (B: 4-8° C.)”. For the compound `Cn1cc(Cc2cnc(-c3cccc(Oc4ccc5[nH]ccc5c4)c3)[nH]2)cn1` [Compound 28, 5-(3-(5-((1-methyl-1H-pyrazol-4-yl)methyl)-1H-imidazol-2-yl)phenoxy)-1H-indole], the “DSLS NBD1/3D Human Stability delta-T” value is given as “C (C: ≤4° C.)”. Then `Cc1c[nH]c2cc(F)c(Oc3ccc(F)c(-c4ccn(Cc5cnc(CCC(N)=O)s5)n4)c3)cc12` [Compound 7, 3-(5-((3-(2-fluoro-5-((6-fluoro-3-methyl-1H-indol-5-yl)oxy)phenyl)-1H-pyrazol-1-yl)methyl)thiazol-2-yl)propanamide], with “C (C: ≤4° C.)”.
